What was measured:
Cbl (aa49-434) = target: T1, Cbl (aa49-434) (Homo sapiens, UniProt P22681); test: Co-expressed Cbl with BirA biochemical assay (CBL/E2-Ub binding, HTRF); settings: 0.6 nM Cbl co-expressed with BirA, read-out: co-express CBL/E2-Ub-binding assay IC50
T1 construct: Cbl (aa49-434, in-house); made in house
T1 sequence (P22681 49-434): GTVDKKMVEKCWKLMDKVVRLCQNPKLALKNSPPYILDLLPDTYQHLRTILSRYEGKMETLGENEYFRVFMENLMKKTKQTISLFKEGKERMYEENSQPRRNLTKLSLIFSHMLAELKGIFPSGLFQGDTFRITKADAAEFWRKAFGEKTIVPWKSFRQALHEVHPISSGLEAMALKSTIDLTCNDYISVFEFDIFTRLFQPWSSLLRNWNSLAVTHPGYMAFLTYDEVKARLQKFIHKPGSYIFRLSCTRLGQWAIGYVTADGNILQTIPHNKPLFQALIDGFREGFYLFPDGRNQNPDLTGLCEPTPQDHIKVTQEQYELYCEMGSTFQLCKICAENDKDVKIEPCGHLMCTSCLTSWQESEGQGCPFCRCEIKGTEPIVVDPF
Text: (§1) The assay in the absence of a Cbl-b/Cbl inhibitor, where phosphorylation of Cbl-b/Cbl by the Src kinase allows UbcH5B-Ub to bind to Cbl-b/Cbl and brings the Bodipy-Fluorescein tagged ubiquitin in proximity to the streptavidin-terbium bound to the N-terminal biotinylated Avi-tagged Cbl-b/Cbl. […] The lack of a FRET signal indicates Cbl-b/Cbl is inhibited by the Cbl-b/Cbl inhibitor.

Cbl-b (aa36-427) = target: T2, Cbl-b (aa36-427) (Homo sapiens, UniProt Q13191); test: Co-expressed Cbl-b with BirA biochemical assay (CBLB/E2-Ub binding, HTRF); settings: 0.6 nM Cbl-b co-expressed with BirA, HTRF; read-out: co-express CBLB/E2-Ub-binding assay IC50
T2 construct: Cbl-b (aa36-427, in-house); made in house
Text: as §1

T2 sequence (Q13191 36-427): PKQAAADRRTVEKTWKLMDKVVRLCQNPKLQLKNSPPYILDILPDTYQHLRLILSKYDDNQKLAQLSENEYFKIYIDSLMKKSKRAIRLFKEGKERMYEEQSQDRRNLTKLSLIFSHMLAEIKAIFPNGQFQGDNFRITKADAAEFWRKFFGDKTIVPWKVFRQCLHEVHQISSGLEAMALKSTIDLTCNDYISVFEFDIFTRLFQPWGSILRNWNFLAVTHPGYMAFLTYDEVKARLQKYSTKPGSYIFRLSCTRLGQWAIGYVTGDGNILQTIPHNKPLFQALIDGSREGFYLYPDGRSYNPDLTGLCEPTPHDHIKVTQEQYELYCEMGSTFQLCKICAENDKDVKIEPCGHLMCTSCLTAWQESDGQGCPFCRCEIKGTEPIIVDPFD

Row | SMILES | IC50 (Cbl (aa49-434)) | IC50 (Cbl-b (aa36-427))
1 | Cn1cnnc1[C@]1(c2cccc(NC(=O)c3cc(CNC4(C)CCC4)cn4c(F)cnc34)c2)C[C@H](C)C1 [Compound A44, 3-fluoro-N-(3-((1s, 3s)-3-methyl-1-(4-methyl-4H-1,2,4-triazol-3-yl)cyclobutyl)phenyl)-6-(((1-methylcyclobutyl)amino)methyl)imidazo[1,2-a]pyridine-8-carboxamide] | 7.7 nM | 1.8 nM
2 | Cn1cnnc1[C@]1(c2cccc(NC(=O)c3cc(CNC4(C)CCC4)cn4ccnc34)c2)C[C@H](CC#N)C1 [Compound A36, N-(3-((1s, 3s)-3-(cyanomethyl)-1-(4-methyl-4H-1,2,4-triazol-3-yl)cyclobutyl)phenyl)-6-(((1-methylcyclobutyl)amino)methyl)imidazo[1,2-a]pyridine-8-carboxamide compound with N-(3-((1s, 3s)-3-(cyanomethyl)-1-(4-methyl-4H-1,2,4-triazol-3-yl)cyclobutyl)phenyl)-6-formylimidazo[1,2-a]pyridine-8-carboxamide (1:1)] | 16 nM | 1.7 nM
3 | CC(C)CNCc1cc(C(=O)Nc2cccc([C@]3(c4nncn4C)C[C@@H](C)C3)c2)c2nccn2c1 [Compound A18, 6-((isobutylamino)methyl)-N-(3-((1s, 3s)-3-methyl-1-(4-methyl-4H-1,2,4-triazol-3-yl)cyclobutyl)phenyl)imidazo[1,2-a]pyridine-8-carboxamide] | 6 nM | 1.1 nM
4 | C[C@H](NCc1cc(C(=O)Nc2cccc([C@]3(c4nncn4C)C[C@@H](C)C3)c2)c2ncc(Cl)n2c1)C1CC1 [Compound A58, 3-chloro-6-((((S)-1-cyclopropylethyl)amino)methyl)-N-(3-((1s,3R)-3-methyl-1-(4-methyl-4H-1,2,4-triazol-3-yl)cyclobutyl)phenyl)imidazo[1,2-a]pyridine-8-carboxamide] | 2.6 nM | 0.7 nM
5 | Cn1cnnc1[C@]1(c2cccc(NC(=O)c3cc(CNCC4(C)CCC4)cn4ccnc34)c2)C[C@H](CC#N)C1 [Compound A30, N-(3-((1s, 3s)-3-(cyanomethyl)-1-(4-methyl-4H-1,2,4-triazol-3-yl)cyclobutyl)phenyl)-6-((((1-methylcyclobutyl)methyl)amino)methyl)imidazo[1,2-a]pyridine-8-carboxamide] | 6.4 nM | 0.6 nM
6 | C[C@H](NCc1cc(C(=O)Nc2cccc([C@]3(c4nncn4C)C[C@@H](CC#N)C3)c2)c2ncc(Cl)n2c1)C1CCCC1 [Compound A34, 3-chloro-N-(3-((1s,3R)-3-(cyanomethyl)-1-(4-methyl-4H-1,2,4-triazol-3-yl)cyclobutyl)phenyl)-6-((((S)-1-cyclopentylethyl)amino)methyl)imidazo[1,2-a]pyridine-8-carboxamide] | 7.8 nM | 2.6 nM
7 | Cn1cnnc1[C@]1(c2cccc(NC(=O)c3cc(CN[C@H]4CCC(F)(F)C4)cn4ccnc34)c2)C[C@H](CC#N)C1 [Compound A23, N-(3-((1s,3R)-3-(cyanomethyl)-1-(4-methyl-4H-1,2,4-triazol-3-yl)cyclobutyl)phenyl)-6-((((S)-3,3-difluorocyclopentyl)amino)methyl)imidazo[1,2-a]pyridine-8-carboxamide] | 11.4 nM | 1.4 nM
8 | Cn1cnnc1[C@]1(c2cncc(NC(=O)c3cc(CNC4(C)CC4)cn4c(F)cnc34)c2)C[C@H](C)C1 [Compound A74, 3-fluoro-N-(5-((1s, 3s)-3-methyl-1-(4-methyl-4H-1,2,4-triazol-3-yl)cyclobutyl)pyridin-3-yl)-6-(((1-methylcyclopropyl)amino)methyl)imidazo[1,2-a]pyridine-8-carboxamide] | 4.2 nM | 1.2 nM

Results, then the compound that gave them:

Row | IC50 (Cbl (aa49-434)) | IC50 (Cbl-b (aa36-427)) | SMILES
9 | 11.5 nM | 2.5 nM | Cn1cnnc1[C@]1(c2cccc(NC(=O)c3cc(CNC4(C)CCC4)c4c(n3)C(C)(C)CC4)c2)C[C@H](CC#N)C1 [Compound C40, N-(3-((1s, 3s)-3-(cyanomethyl)-1-(4-methyl-4H-1,2,4-triazol-3-yl)cyclobutyl)phenyl)-7,7-dimethyl-4-(((1-methylcyclobutyl)amino)methyl)-6,7-dihydro-5H-cyclopenta[b]pyridine-2-carboxamide]
10 | 42.9 nM | 25.9 nM | Cn1cnnc1CC1(c2cccc(NC(=O)c3cc(CN4CCCC(C(F)(F)F)C4)c4[nH]ccc4n3)c2)COC1 (stereo not shown) [Compound B9, N-(3-(3-((4-methyl-4H-1,2,4-triazol-3-yl)methyl)oxetan-3-yl)phenyl)-7-((3-(trifluoromethyl)piperidin-1-yl)methyl)-1H-pyrrolo[3,2-b]pyridine-5-carboxamide]
11 | 15.6 nM | 2 nM | Cc1c[nH]c2c(CN3CCC[C@H](C)C3)cc(C(=O)Nc3cccc([C@]4(c5nncn5C)C[C@@H](CC#N)C4)c3)nc12 [Compound B10, N-(3-((1s,3R)-3-(cyanomethyl)-1-(4-methyl-4H-1,2,4-triazol-3-yl)cyclobutyl)phenyl)-3-methyl-7-(((S)-3-methylpiperidin-1-yl)methyl)-1H-pyrrolo[3,2-b]pyridine-5-carboxamide]
12 | 13 nM | 1.4 nM | Cn1cnnc1[C@]1(c2cncc(NC(=O)c3cc(CNC4(C)CC4)c4ccsc4n3)c2)C[C@H](C)C1 [Compound B51, N-(5-((1s, 3s)-3-methyl-1-(4-methyl-4H-1,2,4-triazol-3-yl)cyclobutyl)pyridin-3-yl)-4-(((1-methylcyclopropyl)amino)methyl)thieno[2,3-b]pyridine-6-carboxamide]
13 | 4.7 nM | 0.9 nM | Cn1cnnc1[C@]1(c2cccc(NC(=O)c3cc(CN[C@H]4C[C@@H](C)C4)c4[nH]ccc4n3)c2)C[C@H](C)C1 [Compound B33, N-(3-((1s, 3s)-3-methyl-1-(4-methyl-4H-1,2,4-triazol-3-yl)cyclobutyl)phenyl)-7-((((1s, 3s)-3-methylcyclobutyl)amino)methyl)-1H-pyrrolo[3,2-b]pyridine-5-carboxamide]
14 | 1.8 nM | 0.7 nM | C[C@H](NCc1cc(C(=O)Nc2cccc([C@]3(c4nncn4C)C[C@@H](C)C3)c2)nc2c1NCC2(C)C)C1CCC1 [Compound C46, 7-({[(1S)-1-cyclobutylethyl]amino}methyl)-3,3-dimethyl-N-{3-[(1r, 3s)-3-methyl-1-(4-methyl-1,2,4-triazol-3-yl)cyclobutyl]phenyl}-1H,2H-pyrrolo[3,2-b]pyridine-5-carboxamide]
15 | 6.4 nM | 1.9 nM | C[C@H]1CCCN(Cc2cc(C(=O)Nc3cccc([C@]4(Cc5nncn5C)C[C@@H](C#N)C4)c3)nc3cc[nH]c23)C1 [Compound B7, N-(3-((1r,3S)-3-cyano-1-((4-methyl-4H-1,2,4-triazol-3-yl)methyl)cyclobutyl)phenyl)-7-(((S)-3-methylpiperidin-1-yl)methyl)-1H-pyrrolo[3,2-b]pyridine-5-carboxamide]
16 | 7.5 nM | 2.2 nM | Cc1c[nH]c2c(CNCC(C)C)cc(C(=O)Nc3cncc([C@]4(c5nncn5C)C[C@@H](C)C4)c3)nc12 [Compound B21, 7-((isobutylamino)methyl)-3-methyl-N-(5-((1s, 3s)-3-methyl-1-(4-methyl-4H-1,2,4-triazol-3-yl)cyclobutyl)pyridin-3-yl)-1H-pyrrolo[3,2-b]pyridine-5-carboxamide]
17 | 3.3 nM | 0.8 nM | C[C@H](NCc1cc(C(=O)Nc2cccc([C@]3(c4nncn4C)C[C@@H](CC#N)C3)c2)nc2c1OCC2(C)C)C1CCC1 [Compound C28, 7-({[(1S)-1-cyclobutylethyl]amino}methyl)-3,3-dimethyl-N-{3-[(1s, 3s)-3-(cyanomethyl)-1-(4-methyl-1,2,4-triazol-3-yl)cyclobutyl]phenyl}-2H-furo[3,2-b]pyridine-5-carboxamide]
18 | 32 nM | 1.4 nM | Cn1ccc2nc(C(=O)Nc3cccc([C@]4(c5nncn5C)C[C@@H](CC#N)C4)c3)cc(CNC3(C)CCC3)c21 [Compound B56, N-(3-((1s, 3s)-3-(cyanomethyl)-1-(4-methyl-4H-1,2,4-triazol-3-yl)cyclobutyl)phenyl)-1-methyl-7-(((1-methylcyclobutyl)amino)methyl)-1H-pyrrolo[3,2-b]pyridine-5-carboxamide]
19 | 9.3 nM | 1.5 nM | Cn1cnnc1[C@]1(c2cncc(NC(=O)c3cc(CNC4(C)CCC4)c4[nH]ccc4n3)c2)C[C@H](C)C1 [Compound B50, N-(5-((1s, 3s)-3-methyl-1-(4-methyl-4H-1,2,4-triazol-3-yl)cyclobutyl)pyridin-3-yl)-7-(((1-methylcyclobutyl)amino)methyl)-1H-pyrrolo[3,2-b]pyridine-5-carboxamide]
20 | 4.7 nM | 2.1 nM | C[C@H](NCc1cc(C(=O)Nc2cncc([C@]3(c4nncn4C)C[C@@H](C)C3)c2)nc2sccc12)C1CCC1 [Compound B42, 4-({[(1S)-1-cyclobutylethyl]amino}methyl)-N-{5-[(1r, 3s)-3-methyl-1-(4-methyl-1,2,4-triazol-3-yl)cyclobutyl]pyridin-3-yl}thieno[2,3-b]pyridine-6-carboxamide]

Reference: patent US20250163047A1, “HETEROCYCLIC COMPOUNDS, COMPOSITIONS THEREOF, AND METHODS OF TREATMENT THEREWITH” (BeiGene, Ltd., priority 2022, published 2025)
